The source of these data is patent publication US5656629A, “6-substituted pyrazolo (3,4-d)pyrimidin-4-ones and compositions and methods of use thereof” (Sanofi Winthrop, Inc., priority 1995, dated 1997).

One test addresses T1, cGMP-PDE V (Homo sapiens, UniProt O76074).
T1 construct: isolated from cardiovascular tissues (heart and aorta); from tissue; host or cells: cardiovascular tissues (heart and aorta)
As to the kind of experiment: cGMP-PDE V inhibition (isozyme isolated from cardiovascular tissue). As to conditions: for inhibition at 0.1 µM / inhibition at 1 µM / inhibition at 10 µM / inhibition at 0.01 µM: read-out: Percent Inhibition cGMP-PDE V. It counts as biochemical, various animal species and man. The source says:
The cGMP-PDE and other PDE isozymes were isolated from cardiovascular tissues (heart and aorta) of various animal species and man by anion-exchange and affinity chromatography as described by Silver et al., Sec. Messeng. Phos. […] Cyclic Nucleotide Res. 10:69-92.

Test [1] relates to Spontaneously hypertensive rats (SHR). As to the kind of experiment: antihypertensive activity in conscious spontaneously hypertensive rats (mean arterial pressure). It counts as in vivo. The note with it: Rattus norvegicus, SHR iv; for ED25: 5 min, 5 min after dose, cumulative dosing, read-out: ED25, change in mean arterial pressure. The protocol: After a 2 day recovery from surgery, three baseline blood pressure measurements were made at 5 min intervals in conscious SHR. Compounds to be tested or vehicle were then administered intravenously in a dose-dependent manner (0.3-10 mg base/kg) while arterial pressure was recorded continuously on a polygraph. The mean arterial pressure response was measured 5 minutes after the administration of each dose of the test compound and the next dose given in a cumulative dose fashion. The response to each dose of the test compound was calculated as the difference from the mean of the three baseline measurements.

Turning to “1-cyclopentyl-3-ethyl-6-[3,5-dimethylamino-4-hydroxyphenylmethyl]pyrazolo[3,4-d]pyrimidin-4-one [Example 14]”, the figures for the “Percent Inhibition cGMP-PDE V” value on cGMP-PDE V (1 μM) and on cGMP-PDE V (10 μM) were 28% and 77%, respectively.
A word on the IC50: it is the concentration that gives 50% inhibition. High values mean lower potency, low ones higher potency. Regarding `CCc1[nH]n(C2CCCC2)c2nc(Cc3ccc(OC)c(OC)c3)nc(=O)c1-2` [3(b), 1-cyclopentyl-3-ethyl-6-(3,4-dimethoxyphenylmethyl)-pyrazolo[3,4-d)pyrimidin-4-one], 22 nM corresponded to half-maximal inhibition at cGMP-PDE V (IC50).
Consider `CCc1[nH]n(C2CCCC2)c2nc(Cc3ccncc3)nc(=O)c1-2` [4(b), 1-cyclopentyl-3-ethyl-6-(4-pyridinylmethyl)pyrazolo[3,4-d]pyrimidin-4-one], for which half-maximal inhibition on cGMP-PDE V (IC50) required 650 nM.
`CCc1[nH]n(C2CCCC2)c2nc(Cc3ccc(OCC(=O)O)cc3)nc(=O)c1-2` [8(b), 1-cyclopentyl-3-ethyl-6-[4-(carboxymethoxy)phenylmethyl]pyrazolo[3,4-d]pyrimidin-4-one] came in with an IC50 at cGMP-PDE V of 1200 nM.
`CCc1nn(C2CCCC2)c2nc(Cc3ccc(OCCN4CCOCC4)cc3)[nH]c(=O)c12` [10(b)] showed an IC50 at cGMP-PDE V of 270 nM. Moreover, the change in vivo at 10 mg/kg in test [1] was -17%.
Compound `CCc1[nH]n(C2CCCC2)c2nc(Cc3ccc(OCc4nnn[nH]4)cc3)nc(=O)c1-2` [11(b), 1-cyclopentyl-3-ethyl-6-[4-(5-tetrazolylmethoxy)phenylmethyl]pyrazolo[3,4-d]pyrimidin-4-one] came in with a concentration for half-maximal inhibition (IC50) at cGMP-PDE V of 310 nM. Moreover, the change in vivo at 10 mg/kg in test [1] was -4%.
Usually inhibition stands for the change of the read-out against control, counted positive when it falls. `CCc1nn(C2CCCC2)c2nc(Cn3cnc4ccccc43)[nH]c(=O)c12` [12(b), 1-cyclopentyl-3-ethyl-6-[1-benzimidazolylmethyl]pyrazolo[3,4-d]pyrimidin-4-one]: the inhibition at 0.1 µM at cGMP-PDE V came out at 17%. In addition, the inhibition at 1 µM on cGMP-PDE V (1 μM) was 39%.
Take `CCc1[nH]n(C2CCCC2)c2nc(CN3CCc4ccccc4C3)nc(=O)c1-2` [15(c), 1-cyclopentyl-3-ethyl-6-(1,2,3,4-tetrahydro-2-isoquinolinylmethyl)pyrazolo[3,4-d]pyrimidin-4-one]: inhibition at cGMP-PDE V was half-maximal at 1770 nM (IC50). This counts as single-digit micromolar.
For `CCc1nn(C2CCCC2)c2nc(CN3CCCc4ccccc43)[nH]c(=O)c12` [16(b), 1-cyclopentyl-3-ethyl-6-(1,2,3,4-tetrahydro-1-quinolinylmethyl)pyrazolo[3,4-d]pyrimidin-4-one], at cGMP-PDE V (1 μM), the inhibition at 1 µM came out at 32%. In addition, the inhibition at 10 µM at cGMP-PDE V (10 μM) is 90%.
Turning to `CCc1nn(C2CCCC2)c2nc(Cn3ccnc3)[nH]c(=O)c12` [18(b), 1-cyclopentyl-3-ethyl-6-(1-imidazolylmethyl)pyrazolo[3,4-d]pyrimidin-4-one], the inhibition at 1 µM on cGMP-PDE V (1 μM) was determined as 33%.
Turning to `CCc1nn(C2CCCC2)c2nc(Cc3cccc(OCCN4CCOCC4)c3)[nH]c(=O)c12` [21(c), 1-cyclopentyl-3-ethyl-6-[3-[2-(4-morpholinyl)ethoxy]phenylmethyl]pyrazolo[3.4-d]pyrimidin-4-one], the IC50 against cGMP-PDE V came out at 420 nM.
With `CCc1nn(C2CCCC2)c2nc(Cn3cccn3)[nH]c(=O)c12` [23(b), 1-cyclopentyl-3-ethyl-6-(1-pyrazolylmethyl)pyrazolo[3,4-d]pyrimidin-4-one], the inhibition at 1 µM on cGMP-PDE V (1 μM) worked out at 33%.
In turn, `CCc1[nH]n(C2CCCC2)c2nc(Cc3ccc(C(F)(F)F)cc3)nc(=O)c1-2` [24(b), 1-cyclopentyl-3-ethyl-6-(4-trifluoromethylphenylmethyl) pyrazolo[3,4-d]pyrimidin-4-one] yielded an IC50 against cGMP-PDE V of 180 nM. The change in vivo at 10 mg/kg in test [1] is -8%.
The like results for `CCc1[nH]n(C2CCCC2)c2nc(Cc3ccc([N+](=O)[O-])cc3)nc(=O)c1-2` [25(a), 1-cyclopentyl-3-ethyl-6-(4-nitrophenylmethyl)pyrazolo[3,4-d]pyrimidin-4-one] were, in that order, 76 nM and -5%.
For the compound `CCc1[nH]n(C2CCCC2)c2nc(Cc3ccccc3OC)nc(=O)c1-2` [27(b), 1-cyclopentyl-3-ethyl-6-(2-methoxyphenylmethyl)pyrazolo[3,4-d]pyrimidin-4-one], at cGMP-PDE V, the inhibition at 0.1 µM was determined as 25%. Also, at cGMP-PDE V (1 μM), the inhibition at 1 µM turned out to be 73%.
Turning to `CCc1[nH]n(C2CCCC2)c2nc(Cc3c(C)noc3C)nc(=O)c1-2` [28(b), 1-cyclopentyl-3-ethyl-6-(3,5-dimethyl-4-isoxazolylmethyl)pyrazolo[3,4-d]pyrimidin-4-one], the inhibition at 1 µM on cGMP-PDE V (1 μM) was found to be 48%.
In the case of `CCc1[nH]n(C2CCCC2)c2nc(Cc3ccc(OC(=O)c4ccc(CN(CC)CC)cc4)cc3)nc(=O)c1-2` [33(b), 1-cyclopentyl-3-ethyl-6-[4-[4-(diethylaminomethyl)phenylcarbonyloxy]phenylmethyl]pyrazolo[3,4-d]pyrimidin-4-one], on cGMP-PDE V, the inhibition at 0.1 µM amounted to 56%. In test [1], the ED25 was 9.3 mg/kg and the change in vivo at 10 mg/kg is -27%.
In the case of `CCc1[nH]n(C2CCCC2)c2nc(Cc3ccc(-n4ccnc4)cc3)nc(=O)c1-2` [36(b), 1-cyclopentyl-3-ethyl-6-[4-(1-imidazolyl)phenylmethyl]pyrazolo[3,4-d]pyrimidin-4-one], the inhibition at 0.1 µM at cGMP-PDE V amounted to 26%. The inhibition at 1 µM on cGMP-PDE V (1 μM) came to 62%.
Consider `Cc1[nH]n(C(C)(C)C)c2nc(Cc3ccccc3)nc(=O)c1-2` [37(d), 1-tert-butyl-3-methyl-6-(phenylmethyl)pyrazolo[3,4-d]pyrimidin-4-one], for which the inhibition at 0.1 µM at cGMP-PDE V was found to be 36%. In addition, the inhibition at 1 µM on cGMP-PDE V (1 μM) is 78%.
With `CCc1[nH]n(C2CCCC2)c2nc(Nc3ccccc3)nc(=O)c1-2` [38(d), 1-cyclopentyl-3-ethyl-6-(phenylamino)pyrazolo[3,4-d]pyrimidin-4-one], inhibition on cGMP-PDE V was half-maximal at 270 nM (IC50).
`CCc1nn(C2CCCC2)c2nc(Cn3cccc3)[nH]c(=O)c12` [Example 5, 1-cyclopentyl-3-ethyl-6-(1-pyrrolylmethyl)-pyrazolo[3,4-d]pyrimidin-4-one] showed an IC50 against cGMP-PDE V of 310 nM.
`CCc1[nH]n(C2CCCC2)c2nc(Cc3ccccn3)nc(=O)c1-2` [Example 9, 1-cyclopentyl-3-ethyl-6-(2-pyridinylmethyl)pyrazolo[3,4-d]pyrimidin-4-one]: the IC50 at cGMP-PDE V is 540 nM.
Still for that read-out and setting: as for `CCc1[nH]n(C2CCCC2)c2nc(Cc3cccnc3)nc(=O)c1-2` [Example 13, 1-cyclopentyl-3-ethyl-6-[3-pyridinylmethyl]pyrazolo[3,4-d]pyrimidin-4-one], the figure is 660 nM.
For the compound `CCc1[nH]n(C2CCCC2)c2nc(CO)nc(=O)c1-2` [Example 17, 1-cyclopentyl-3-ethyl-6-(hydroxymethyl)pyrazolo[3,4-d]pyrimidin-4-one], the inhibition at 1 µM on cGMP-PDE V (1 μM) was determined as 20%. In addition, on cGMP-PDE V (10 μM), the inhibition at 10 µM is 61%.
`CCc1[nH]n(C2CCCC2)c2nc(Cc3cccc(OC)c3)nc(=O)c1-2` [Example 19, 1-cyclopentyl-3-ethyl-6-(3-methoxyphenylmethyl)pyrazolo[3,4-d]pyrimidin-4-one] returned an IC50 on cGMP-PDE V of 33 nM. In test [1], the ED25 stood at 11 mg/kg and the change in vivo at 10 mg/kg is -21%.
As for `CCc1[nH]n(C2CCCC2)c2nc(Cc3cccn3C)nc(=O)c1-2` [Example 22, 1-cyclopentyl-3-ethyl-6-(1-methyl-2-pyrrolylmethyl)pyrazolo[3,4-d]pyrimidin-4-one], the IC50 against cGMP-PDE V came out at 300 nM.
For `CCc1[nH]n(C2CCCC2)c2nc(Cc3ccc(NS(C)(=O)=O)cc3)nc(=O)c1-2` [Example 29, 1-cyclopentyl-3-ethyl-6-[4-(methylsulfonylamino)phenylmethyl]pyrazolo[3,4-d]pyrimidin-4-one], on cGMP-PDE V, the inhibition at 0.01 µM came to 77% and the inhibition at 0.1 µM came out at 94%.
In the case of `CCc1[nH]n(C2CCCC2)c2nc(Cc3ccccc3O)nc(=O)c1-2` [Example 30, 1-cyclopentyl-3-ethyl-6-(2-hydroxyphenylmethyl)pyrazolo[3,4-d]pyrimidin-4-one], the inhibition at 0.1 µM on cGMP-PDE V came to 43%. The inhibition at 1 µM on cGMP-PDE V (1 μM) came to 73%.
With `CCc1[nH]n(C2CCCC2)c2nc(Cc3ccsc3)nc(=O)c1-2` [Example 31, 1-cyclopentyl-3-ethyl-6-(3-thienylmethyl)pyrazolo[3,4-d]pyrimidin-4-one], on cGMP-PDE V, inhibition was half-maximal at 30 nM (IC50).
With `CCc1[nH]n(C2CCCC2)c2nc(Cc3cccs3)nc(=O)c1-2` [Example 32, 1-cyclopentyl-3-ethyl-6-(2-thienylmethyl)pyrazolo[3,4-d]pyrimidin-4-one], on cGMP-PDE V, the inhibition at 0.01 µM is 24% and the inhibition at 0.1 µM came out at 58%. Further, the inhibition at 1 µM on cGMP-PDE V (1 μM) is 89%.
For the compound `CCc1[nH]n(C2CCCC2)c2nc(Cc3ccccc3N)nc(=O)c1-2` [Example 34, 1-cyclopentyl-3-ethyl-6-(2-aminophenylmethyl)pyrazolo[3,4-d]pyrimidin-4-one], the inhibition at 0.1 µM on cGMP-PDE V was 45%. Moreover, on cGMP-PDE V (1 μM), the inhibition at 1 µM is 78%.
Consider `CCc1[nH]n(C2CCCC2)c2nc(Cc3ccc(N(C)C)cc3)nc(=O)c1-2` [Example 35, 1-cyclopentyl-3-ethyl-6-(4-dimethylaminophenylmethyl)pyrazolo[3,4-d]pyrimidin-4-one], for which, on cGMP-PDE V, the inhibition at 0.1 µM turned out to be 34%. Moreover, at cGMP-PDE V (1 μM), the inhibition at 1 µM was determined as 53%.
Turning to `CCc1[nH]n(C2CCCC2)c2nc(Oc3ccccc3)nc(=O)c1-2` [Example 39, 1-cyclopentyl-3-ethyl-6-(phenyloxy)pyrazolo[3,4-d]pyrimidin-4-one], the inhibition at 0.1 µM at cGMP-PDE V is 33%. Further, the inhibition at 1 µM on cGMP-PDE V (1 μM) was found to be 74%.
